Measurements published in US20190144499A1, “PHENYL P[…], AND MANUFACTURING METHOD AND PHARMACEUTICAL APPLICATION THEREOF” (Jiangsu Hengrui Medicine Co., Ltd., priority 2016, published 2019).
Where a SMILES comes first, the peptide text is derived from it. [ ]: non-standard residue; d: D form. The star is where a group is joined. Piperidin1yl(4-NH2,4-COOH) = NC1(C(=O)O)CCN(*)CC1; N(Indan-2-yl)Gly = O=C(O)CNC1Cc2ccccc2C1; Gly(NCH2CH2Ph) = O=C(O)CNCCc1ccccc1; Morpholide = C1CN(*)CCO1

What was measured:
[1] = target: T1, human KOR (h-KOR) receptors (Homo sapiens, UniProt P41145); test: h-KOR agonist activity test (cAMP/CRE-luciferase reporter in HEK293/h-KOR/CRE cells); format: cell-based; details: Forskolin, 4 hours, luciferase chemiluminescence, read-out: EC50 on agonizing h-KOR receptor and affecting cAMP levels
T1 construct: expressed in transfected cells
Source text: The objective of this experiment is to determine the agonistic effect of the compounds of the present invention on human KOR (h-KOR) receptors, and to evaluate the in vitro activity of the compounds according to the values of EC50.
The compounds of the present invention can activate h-KOR receptor, thereby reducing intracellular cAMP levels. The second messenger cAMP enters the nucleus and binds to the CRE of the DNA, thereby initiating the expression of the downstream luciferase. Luciferase reacts with its substrate to emit fluorescence, and the measured fluorescence signals reflect the agonistic activity of the compounds.
The activity of the test example compounds on agonizing h-KOR and affecting downstream cAMP levels was tested by the following method.
KOR/pcDNA3.1 (+) and CRE/pGL4.29 were transferred into HEK293 cells. G418 and hygromycin were added into the culture medium, and HEK293/KOR/CRE monoclonal cell lines were screened in a 96-well cell culture plate.
HEK293/h-KOR/CRE monoclonal cells were cultured in a DMEM/high glucose medium (10% FBS, 1 mg/ml G418, 200 μg/ml hygromycin, mixed uniformly), and passaged every 3 days. On the day of the experiment, a cell suspension was prepared with a fresh cell medium, added to a 96 well plate (BD, #356692) with 20,000 cells/well, and incubated in 5% CO2 at 37° C. On the second day, the compound was dissolved in pure DMSO at a concentration of 20 mM, then formulated with DMSO to a first concentration of 200 nM and diluted in 3 fold concentration gradient to 8 concentrations. 90 μl of DMSO were added to blank and control wells. The compound solution was diluted 20-fold with DMEM/hyperglucose (SH30243.01B, Hyclone) medium containing […]. The cell culture plates inoculated on the first day were taken out, and 10 μl of the diluted drug or the control (0.5% DMSO) was added to each well. The plate was gently shaken, and placed at 37° C. for 4 hours. In a 96-well cell culture plate, 100 μl of luciferase assay solution (Promega, # E6110) was added to each well. The plate was placed for 5 minutes at room temperature. The chemiluminescence value was measured using Victor 3.0. The EC50 values of the compounds were calculated using Graphpad Prism software based on each concentration of the compound and the corresponding signal value.
The activity of the compounds of the present invention on agonizing h-KOR and affecting downstream cAMP levels was determined by the above test, and the EC50 values are shown in Table 1.1.

[2] = Pharmacokinetics assay in rats after intravenous administration; format: in vivo; details: both sexes, Sprague-Dawley, rat, plasma, SD rats, 1 mg/kg; for Vd: read-out: Apparent Distribution Volume Vz; for AUC: read-out: Area Under Curve AUC; for clearance: read-out: Clearance CL; for half-life: read-out: Half-Life t1/2 (converted); for MRT: read-out: Mean Residence Time MRT
Protocol: (§1) Rats were used as test animals. The drug concentration in plasma at different time points was determined by LC/MS/MS after intravenous administration of the compounds of Examples 2, 5 and 8 to the rats. The pharmacokinetic behavior of the compounds of the present invention was studied and evaluated in SD rats.
12 Sprague-Dawley (SD) rats, half male and half female, were purchased from SINO-BRITISH SIPPR/BK LAB. ANIMAL LTD., CO, with License No.: SOCK (Shanghai) 2008-0016.
The appropriate amount of the test compounds was weighed, and added with 5% 5% DMSO+5% PEG400+90% normal saline successively.
After an overnight fast, 12 SD rats, half male and half female, were divided into 3 groups equally, and administered intravenously at a dose of an administration volume of 5 mL/kg.
(§2) In the venous group, blood (0.2 mL) was taken from the orbital sinus before administration and 0.25, 0.5, 1.0, 2.0, 4.0, 8.0, 11.0 and 24.0 hours after administration. The samples were stored in heparinized tubes, and centrifuged for 10 minutes at 3,500 rpm to separate the blood plasma. The plasma samples were stored at −20° C.
The concentration of the test compounds in SD rat plasma after intravenous administration was determined by LC-MS/MS.

[3] = Pharmacokinetics assay in dogs after intravenous administration; format: in vivo; details: male, dog, plasma, Beagle dogs, 0.3 mg/kg
Protocol: as §1, with “Beagle dogs” for “Rats”, “compound” for “compounds”, “Example” for “Examples 2,”, “5” for “5 and 8”, “Beagle dogs.” for “rats.”, “Beagle dogs.” for “SD rats.”
3 Beagle dogs in one group, male, were purchased from Medicilon Pharmaceutical Technology (Shanghai) Co., Ltd.
The appropriate amount of the test compound was weighed, and added with 100% normal saline.
After an overnight fast, 3 Beagle dogs in one group, male, were administered intravenously at a dose of an administration volume of 2 mL/kg.
as §2, with “(1” for “(0.2”, “jugular vein” for “orbital sinus”, “5 minutes, 15 minutes,” for “0.25,”, “12.0” for “11.0”, “−80°” for “−20°”
The concentration of the test compound in Beagle dog plasma after intravenous administration was determined by LC-MS/MS.

[4] = tested on: carrageenan inflammatory pain model in rats; test: Carrageenan-induced inflammatory pain in rats, plantar tenderness test (electronic Von Frey); format: in vivo, Wistar rats; details: for threshold of tenderness: 30 minutes before detection, 4 hours after carrageenan, model group 7.6 g, blank control about 20 g
Protocol: A carrageenan inflammatory pain model in rats was established to evaluate the therapeutic effect of KOR agonists on inflammatory pain in rats.
Male Wistar rats were purchased from Shanghai Slac Laboratory Animal Co., Ltd. (Shanghai, China, Certificate No. 2015000513408, License No. SCXK (Shanghai) 2012-0002). The rats were 150-180 g, and fed at 5/cage, in a condition of 12/12 hours light/dark cycle adjustment, constant temperature of 23±1° C., humidity of 50˜60%, and free access to food and water. After purchase, the animals adapted to this condition for 7 days before the experiment was started.
1% λ-Carrageenan was placed in physiological saline, and stirred overnight to form a jelly-like suspension.
The experimental method was modified in accordance with the method of Document 1 (Kazunari Nakao et al.). Before inflammatory pain experiment, rats were randomly divided into the following groups according to body weight: blank control group, model group, Example 5-0.1 mg/kg group, and Example 5-0.3 mg/kg group. There were 8 rats in each group. Inflammatory pain model was made in Wistar rat footpads that were subcutaneously injected with 1% carrageenan (100 μl). After 4 hours, the rats were subjected to a plantar tenderness test to evaluate the mechanical pain threshold. Single tail vein administration of the drug (1 ml/kg) was carried out 30 minutes before detection, and the control group and the model group were given corresponding solvents.
Electronic Von Frey: UGO BASILE, type 38450.
The experimental data were expressed as mean±standard deviation (S.D.). Statistical comparisons were performed using the excel software t test.

T1 sequence (P41145 whole entry): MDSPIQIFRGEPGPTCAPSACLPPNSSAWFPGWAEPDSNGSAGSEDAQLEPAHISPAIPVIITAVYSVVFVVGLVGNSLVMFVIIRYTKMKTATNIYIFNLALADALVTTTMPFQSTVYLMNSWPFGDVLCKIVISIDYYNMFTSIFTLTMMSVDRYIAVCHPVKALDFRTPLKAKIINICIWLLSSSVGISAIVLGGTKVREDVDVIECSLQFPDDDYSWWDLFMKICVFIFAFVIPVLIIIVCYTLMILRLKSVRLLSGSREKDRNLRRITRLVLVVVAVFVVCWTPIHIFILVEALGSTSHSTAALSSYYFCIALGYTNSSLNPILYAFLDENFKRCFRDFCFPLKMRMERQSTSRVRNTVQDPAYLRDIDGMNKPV

| Structure (SMILES) | EC50 [1] [nM] | Vd [2] [L/kg] | AUC [2] [ng·h/mL] | clearance [2] [mL/min/kg] | half-life [2] [min] | MRT [2] [min] | further results |
| --- | --- | --- | --- | --- | --- | --- | --- |
| CC(C)C[C@@H](NC(=O)[C@@H](Cc1ccccc1)NC(=O)CNCC1(c2ccccc2)CC1)C(=O)N[C@H](CCCCN)C(=O)N1CCC(N)(C(=O)O)CC1 [Example 1, 4-amino-1-((6R,9R,12R)-12-(4-aminobutyl)-6-benzyl-9-isobutyl-4,7,10-trioxo-1-(1-phenylcyclopropyl)-2,5,8,11-tetraazatridecan-13-oyl)piperidine-4-carboxylic acid] | 0.056 | – | – | – | – | – | – |
| CC(C)C[C@@H](NC(=O)[C@@H](Cc1ccccc1)NC(=O)CNC[C@@H](C)c1ccccc1)C(=O)N[C@H](CCCCN)C(=O)N1CCC(N)(C(=O)O)CC1 [Example 2, 4-amino-1-((2R,5R,8R,14S)-2-(4-aminobutyl)-8-benzyl-5-isobutyl-4,7,10-trioxo-14-phenyl-3,6,9,12-tetraazapentadecan-1-oyl)piperidine-4-carboxylic acid] | 0.015 | 0.28 ± 0.046 | 2560 ± 427 | 6.66 ± 1.28 | 29.3 ± 1.56 | 31.5 ± 5.94 | – |
| CC(C)C[C@@H](NC(=O)[C@@H](Cc1ccccc1)NC(=O)CNCC(C)(C)c1ccccc1)C(=O)N[C@H](CCCCN)C(=O)N1CCC(N)(C(=O)O)CC1 [Example 3, 4-amino-1-((2R,5R,8R)-2-(4-aminobutyl)-8-benzyl-5-isobutyl-14-methyl-4,7,10-trioxo-14-phenyl-3,6,9,12-tetraazapentadecan-1-oyl)piperidine-4-carboxylic Acid] | 0.004 | – | – | – | – | – | – |
| CC(C)C[C@@H](NC(=O)[C@@H](Cc1ccccc1)NC(=O)CNC[C@@H](c1ccccc1)C(C)C)C(=O)N[C@H](CCCCN)C(=O)N1CCC(N)(C(=O)O)CC1 [Example 4, 4-amino-1-((2R,5R,8R,14R)-2-(4-aminobutyl)-8-benzyl-5-isobutyl-15-methyl-4,7,10-trioxo-14-phenyl-3,6,9,12-tetraazahexadecan-1-oyl)piperidine-4-carboxylic Acid] | 0.009 | – | – | – | – | – | – |
| CC(C)C[C@@H](NC(=O)[C@@H](Cc1ccccc1)NC(=O)CNC[C@H](C)c1ccccc1)C(=O)N[C@H](CCCCN)C(=O)N1CCC(N)(C(=O)O)CC1 [Example 5, 4-amino-1-((2R,5R,8R,14R)-2-(4-aminobutyl)-8-benzyl-5-isobutyl-4,7,10-trioxo-14-phenyl-3,6,9,12-tetraazapentadecan-1-oyl)piperidine-4-carboxylic Acid] | 0.001 | 0.41 ± 0.112 | 1700 ± 363 | 10.1 ± 1.8 | 28.1 ± 5.52 | 33.4 ± 7.44 | Vd ([3]; read-out: Apparent Distribution Volume Vz): 0.296 ± 0.019 L/kg; AUC ([3]; read-out: Area Under Curve AUC): 1980 ± 165 ng·h/mL; clearance ([3]; read-out: Clearance CL): 2.54 ± 0.21 mL/min/kg; half-life ([3]; read-out: Half-Life t1/2 (converted)): 80.4 ± 2.4 min; MRT ([3]; read-out: Mean Residence Time MRT): 85.8 ± 4.8 min; increase of threshold of tenderness compared with the model group ([4]; 0.1 mg/kg i.v. once): 79.5%; threshold of tenderness ([4]; 0.1 mg/kg i.v. once): 13.7 g; increase of threshold of tenderness compared with the model group ([4]; 0.3 mg/kg i.v. once): 204.5%; threshold of tenderness ([4]; 0.3 mg/kg i.v. once): 23.2 g |
| CC(C)C[C@@H](NC(=O)[C@@H](Cc1ccccc1)NC(=O)CN[C@H]1C[C@@H]1c1ccccc1)C(=O)N[C@H](CCCCN)C(=O)N1CCOCC1 [Example 6, (R)—N—((R)-6-amino-1-morpholino-1-oxohexan-2-yl)-4-methyl-2-((R)-3-phenyl-2-(2-(((1S,2R)-2-phenylcyclopropyl)amino)acetamido)propanamido)pentanamide] | 0.079 | – | – | – | – | – | – |
| CCC(CNCC(=O)N[C@H](Cc1ccccc1)C(=O)N[C@H](CC(C)C)C(=O)N[C@H](CCCCN)C(=O)N1CCC(N)(C(=O)O)CC1)c1ccccc1 (stereo partly drawn) [Example 7, 4-amino-1-((2R,5R,8R)-2-(4-aminobutyl)-8-benzyl-5-isobutyl-4,7,10-trioxo-14-phenyl-3,6,9,12-tetraazahexadecan-1-oyl)piperidine-4-carboxylic Acid] | 0.003 | – | – | – | – | – | – |
| CC(C)C[C@@H](NC(=O)[C@@H](Cc1ccccc1)NC(=O)CNCCc1ccccc1)C(=O)N[C@H](CCCCN)C(=O)N1CCC(N)(C(=O)O)CC1 [Example 8, 4-amino-1-((2R,5R,8R)-2-(4-aminobutyl)-8-benzyl-5-isobutyl-4,7,10-trioxo-14-phenyl-3,6,9,12-tetraazatetradecan-1-oyl)piperidine-4-carboxylic Acid] (H-[Gly(NCH2CH2Ph)][dF][dL][dK]-{Piperidin1yl(4-NH2,4-COOH)}) | 0.013 | 0.499 ± 0.111 | 1520 ± 436 | 11.6 ± 3.3 | 30.1 ± 2.28 | 34 ± 6.72 | – |
| CC(C)C[C@@H](NC(=O)[C@@H](Cc1ccccc1)NC(=O)CNC1Cc2ccccc2C1)C(=O)N[C@H](CCCCN)C(=O)N1CCOCC1 [Example 10, (R)—N—((R)-6-amino-1-morpholino-1-oxohexan-2-yl)-2-((R)-2-(2-((2,3-dihydro-1H-inden-2-yl)amino)acetamido)-3-phenylpropanamido)-4-methylpentanamide] (H-[N(Indan-2-yl)Gly][dF][dL][dK]-Morpholide) | > 1 | – | – | – | – | – | – |
